The values that follow come from US7264811B2, “Purified active HCV NS2/3 protease” (priority 2000, dated 2007).

Where a SMILES comes first, the peptide text is derived from it. A value given as a limit tells only on which side of the number the result lay.

For the assay, the target named is T1, NS2/3 protease (Hepatitis C virus genotype 1b, UniProt P26663).
T1 construct: In a well defined assay system using purified NS2/3 (904-1206) and an optimized cleavage buffer; made in house; host or cells: E. coli BL21(DE3)pLysS
In words: biochemical. Also noted: species or system Hepatitis C virus (HCV) genotype 1b. The settings on record: for trans-cleavage of the peptide by NS2/3 protease: identical assay conditions, data not shown. The method, then: NS2/3 protease cleavage-site derived peptides were evaluated as potentially competing substrates (Table 1). NS2/3 protease cleavage-site derived peptides and NS4A-derived peptides were synthesized in-house using the standard solid-phase methodology or were made by Multiple Peptide Systems (San Diego, Calif.). Various concentrations of peptides were pre-incubated with 0.54 μM NS2/3 protease for 30 min at 23° C. in 50 mM Hepes, pH 7.0, and 50% (w/v) glycerol. The autocleavage reaction was initiated by addition of n-dodecyl-β-D-maltoside to a final concentration of 0.5%. The final DMSO content never exceeded 5% (v/v). The resulting mixture was then incubated for 3 h at 23° C. The reaction was stopped and quantified.

In the case of `CC[C@H](C)[C@H](NC(=O)[C@@H]1CCCN1C(=O)[C@H](C)NC(=O)[C@H](CC(C)C)NC(=O)[C@H](CC(C)C)NC(=O)[C@H](CCCNC(=N)N)NC(=O)[C@H](Cc1c[nH]c2ccccc12)NC(=O)CNC(=O)[C@H](CCC(N)=O)NC(=O)CNC(=O)[C@H](CCC(=O)O)NC(=O)[C@H](Cc1ccccc1)NC(=O)[C@@H](N)CO)C(=O)N[C@H](C(=O)N[C@@H](C)C(=O)N[C@@H](Cc1ccc(O)cc1)C(=O)N[C@@H](CO)C(=O)N[C@@H](CCC(N)=O)C(=O)N[C@@H](CCC(N)=O)C(=O)N[C@H](C(=O)O)[C@@H](C)O)[C@@H](C)O` [Peptide 1, SFEGQGWRLL-APITAYSQQT], the IC50 came to 270 µM and the “trans-cleavage of the peptide by NS2/3 protease” value was “no trans-cleavage”. `CC(C)C[C@H](NC(=O)[C@H](CC(C)C)NC(=O)[C@H](CCCNC(=N)N)NC(=O)[C@H](Cc1c[nH]c2ccccc12)NC(=O)CNC(=O)[C@H](CCC(N)=O)NC(=O)CNC(=O)[C@H](CCC(=O)O)NC(=O)[C@H](Cc1ccccc1)NC(=O)[C@@H](N)CO)C(=O)O` [Peptide 2, SFEGQGWRLL] (H-SFEGQGWRLL-OH; N-terminus and C-terminus assumed): it took 90 µM to reach half-maximal inhibition (IC50).

The compound `CC[C@H](C)[C@H](NC(=O)[C@@H]1CCCN1C(=O)[C@H](C)N)C(=O)N[C@H](C(=O)N[C@@H](C)C(=O)N[C@@H](Cc1ccc(O)cc1)C(=O)N[C@@H](CO)C(=O)N[C@@H](CCC(N)=O)C(=O)N[C@@H](CCC(N)=O)C(=O)N[C@H](C(=O)O)[C@@H](C)O)[C@@H](C)O` [Peptide 3, APITAYSQQT] (H-APITAYSQQT-OH) had an IC50 above 1000 µM. With `CC[C@H](C)[C@H](NC(=O)[C@@H]1CCCN1C(=O)[C@H](C)NC(=O)[C@H](CC(C)C)NC(=O)[C@H](CC(C)C)NC(=O)[C@H](CCCNC(=N)N)NC(=O)[C@H](Cc1c[nH]c2ccccc12)NC(=O)CNC(=O)[C@@H](N)CCCCN)C(=O)N[C@H](C(=O)N[C@@H](C)C(=O)N[C@@H](Cc1ccc(O)cc1)C(=O)O)[C@@H](C)O` [Peptide 4, KGWRLL-APITAY], it took 630 µM to reach half-maximal inhibition (IC50) and the “trans-cleavage of the peptide by NS2/3 protease” value was “no trans-cleavage”.

`CC[C@H](C)[C@H](NC(=O)[C@@H]1CCCN1C(=O)[C@H](C)N)C(=O)N[C@H](C(=O)N[C@@H](C)C(=O)N[C@@H](Cc1ccc(O)cc1)C(=O)O)[C@@H](C)O` [Peptide 5, APITAY] (H-APITAY-OH): the IC50 was found to be 1000 µM.
